Data on 9 compounds can be found in US20090118225A1, “1-Methyl Nicotinamide and Derivatives for Treatment of Gastric Injury” (Cortria Corporation, priority 2007, published 2009).

Data set [1] has as its system WRS-induced gastric lesions. Briefly: Water immersion and restraint stress (WRS)-induced gastric lesion model. The data set is classed as in vivo, Male Wistar rats. The note with it: for effect on the protection by 1-MNA with respect to gastric lesions / effect on the protective property of 1-MNA as measured by mean lesion number and plasma levels of IL-1β and TNFα: COX inhibitor pretreatment plus 1-MNA; for effect on gastroprotection and the accompanying rise in the GBF induced by 1-MNA: summary of inhibitor experiments; for lesion numbers after COX inhibitor pretreatment before 1-MNA and WRS: indomethacin 5 mg/kg i.p., SC-560 5 mg/kg i.g. or rofecoxib 10 mg/kg i.g., versus absence of inhibitor. As for the experimental part: (§1) Male Wistar rats, weighing 180-220 grams were fasted for 24 hours before subjecting to experimentation were employed in all studies. The animals were divided into groups for the following types of induced gastric lesions: ethanol-; aspirin (acetylsalicylic acid; ASA)-; stress-; and ischemia-reperfusion (I/R)-induced gastric lesions. In the first group, gastric lesions were produced by intragastric (i.g.) application of ethanol (75%), in the second group by i.g. application of acidified ASA (125 mg/kg), in the third group by animal exposure to 3.5 hours of water immersion (and restraint stress (WRS), in the fourth group by ischemia (by clamping celiac artery for 30 minutes followed by release of the clamp (reperfusion for 3 hours) (I/R).
(§2) The following experiments were designed to assess the therapeutic effect of 1-MNA on induced gastric lesions.
(§3) To assess gastric blood flow (GBF) laser Doppler flowmeter (Laserflo, model BPM 403A, Blood Perfusion Monitor, Vasamedics, St. Paul, Minn., USA) was used. The animals were anaesthetized with Vetbutal 50 mg/kg (Biowet, Pu^3awy, Poland), then the abdomen was opened and the stomach was exposed to assess the GBF. Blood flow was measured on anterior and posterior wall of stomach. The mean values of these measurements were calculated and expressed as percent change from value recorded in the intact mucosa.
(§4) To establish the number and area of gastric lesions, computerized planimetry (Morphomat, Carl Zeiss, Berlin, Germany) was used. Results are expressed as mm.
(§5) A venous blood sample was withdrawn from the vena cava into EDTA-containing vials in order to determine the plasma level of interleukin-1 beta (IL-1β) and tumor necrosis factor alpha (TNFα) by ELISA technique (BioSource International, Camarillo, Calif., USA).

The test system of data set [2] is I/R-induced gastric lesions. Put plainly: Ischemia-reperfusion (I/R)-induced gastric lesion model. It is filed as in vivo, Male Wistar rats. As for the experimental part:
as §1, §2, §3, §4

Data set [3] has as its system ethanol-induced gastric lesions. Put plainly: Ethanol-induced gastric lesion model. It is filed as in vivo, Male Wistar rats. Here is the method: as §1, §2, §3, §4
Data set [4] relates to diabetes and stress-induced gastric damage. Briefly: Combined diabetes and stress-induced gastric damage model. It is filed as in vivo, rats.
Text: as §5
The next set of experiments was designed to assess the therapeutic effects of 1-MNA in a combined diabetic and stress-induced gastric damage model.
Insulin-dependent diabetes exerts various influences on gastric functions, such as acid secretion and gastric emptying. It has observed that aggravation of gastric mucosal ulcerogenic responses occurs in diabetic rats. Furthermore, deleterious influence of diabetes on the healing of gastric mucosal lesions has been observed in diabetic rats.

The test system of the next data set is gastric acid output. Briefly: Gastric acid output in rats having chronic gastric fistula (GF). The data set is classed as in vivo. Here is the method: The following experiments were designed to compare the effects of pretreatment with vehicle and 1-MNA or NA on stress-induced gastric lesions and the accompanying changes in gastric blood flow (GBF) and gastric tissue activities of MDA and SOD and plasma pro-inflammatory cytokine IL-1β and TNF-α levels. These sets of experiments were based on the observation that 1-MNA was able to reduce the gastric output in rats having chronic gastric fistula (GF). Rats with chronic GF were administered with 1-MNA, NA, or a vehicle control.

In data set [5] the test system is ASA-induced gastric lesions. Briefly: Acidified ASA-induced gastric lesion model. It is filed as in vivo, Male Wistar rats. Here is the method:
as §1, §2, §3, §4
For lipid peroxydation in investigated groups, the determination of the levels of malondialdehyde (MDA) and 4 hydroxynonenal (4-HNE) was carried out and their levels were used as indicators of lipid peroxidation. The procedure of MDA and 4-HNE determination was following: 600 mg of gastric mucosa was excised. Then […] 0.5 M BHT (butylated hydroxytoluene) was added in order to prevent sample oxidation. This sample was subsequently homogenized in 20 mM Tris for 15 sec. in pH 7.4. The homogenate was centrifuged (3,000 g at 4° C. for 10 minutes). Obtained clear supernatant was stored at −80° C. prior to testing. The colorimetric assay for lipid peroxidation (Bioxytech LPO-586, Oxis, Portland, USA) was used to determine the MDA and 4-HNE tissue concentration. This assay is based on the reaction of a chromogenic reagent N-methyl-2-phenylindole with MDA and 4-HNE at 45° C. This reaction yields a stable chromophore with maximal absorbance at 586 nm. This absorbance was measured by spectrophotometer Marcel s300, Warsaw, Poland. Results were expressed as nanomole per gram of tissue (nmol/g).
To determine activity of superoxide dismutase (SOD), a sample of gastric mucosa was taken, as described above. The calorimetric assay for assessment of SOD activity (Bioxytech, SOD-525, Oxis, Portland, USA) was used. This method is based on the SOD-mediated increase in the rate of autooxidation of tetrahydrobenzofluorene in aqueous alkaline solution to yield a chromophore with maximum absorbance at 525 nm. This absorbance was measured by spectrophotometer Marcel s300, Warsaw, Poland. Outcomes were expressed as units per gram of tissue (U/g).
The next set of experiments were designed to measure myeloperoxidase (MPO), malondialdehyde (MDA) and 4-hydroxynonenal (4-HNE), and superoxide dismutase (SOD) activities in rat stomach exposed to acidified ASA as indicators of the prognosis of gastric mucosa injury. To evaluate the inflammatory changes, myeloperoxidase (MPO) activity in the gastric mucosa was measured. MPO activity was measured by enzyme assay. MDA and 4-HNE in tissue are accepted as major products of lipid peroxidation and thus are considered as indicators of mucosa injury by reactive oxygen species (ROS). Organisms have several enzymatic systems that scavenge ROS and prevent their destructive action. The major antioxidative enzyme is superoxide dismutase (SOD).

A further data set deals with acetic acid ulcer. Put plainly: Acetic acid ulcer area and GBF in rats with and without rofecoxib. The data set is classed as in vivo. An excerpt:
The following experiments were designed to assess the effects of 1-MNA on acetic acid ulcer area and GBF in rats administered with and without a selective COX-2 inhibitor (e.g., rofecoxib).

Where [6] appears, read: WRS, administration of 16,16-dimethyl PGE2.
[7] abbreviates: ethanol (75%) i.g., pretreatment.
Where [8] appears, read: acidified ASA 125 mg/kg i.g., pretreatment.
Where [9] appears, read: comparison of protective properties.
Setting [10] is: WRS 3.5 hours, pretreatment 30 minutes prior.
Setting [11] is: ischemia 30 minutes, reperfusion 3 hours, pretreatment.

Turning to `COc1ccc(-n2nc(C(F)(F)F)cc2-c2ccc(Cl)cc2)cc1` [SC-560], in data set [1] (WRS), the “effect on the protection by 1-MNA with respect to gastric lesions” value (“effect on the protection by 1-MNA” for short) was “significantly inhibited the protection by 1-MNA”; the “effect on the protective property of 1-MNA as measured by mean lesion number and plasma levels of IL-1β and TNFα” value (from here on “effect … of IL-1β and TNFα”) is listed as “significantly inhibited the protective property of 1-MNA”. Moreover, the “effect on gastroprotection and the accompanying rise in the GBF induced by 1-MNA” value (shortened to “effect … in the GBF induced by 1-MNA”) in data set [1] is given as “significantly attenuated”.
For the compound `COc1ccc2c(c1)c(CC(=O)O)c(C)n2C(=O)c1ccc(Cl)cc1` [indomethacin], in data set [1] (WRS), the “effect on the protection by 1-MNA” value is listed as “significantly inhibited the protection by 1-MNA”; the “effect … of IL-1β and TNFα” value was “significantly inhibited the protective property of 1-MNA”. In data set [1], the “lesion numbers after COX inhibitor pretreatment before 1-MNA and WRS” value is recorded as “increase of lesion numbers”; the “effect … in the GBF induced by 1-MNA” value is “significantly attenuated”.
For `N=C(NCCC[C@H](N)C(=O)O)N[N+](=O)[O-]` [L-NNA, NG-nitro-L-arginine, reference compound], in data set [2] (L-NNA 20 mg/kg i.p.), the “effect on the therapeutic effects of 1-MNA on gastric lesions” value is “reverse the therapeutic effects of 1-MNA”.
For the compound `CS(=O)(=O)c1ccc(C2=C(c3ccccc3)C(=O)OC2)cc1` [rofecoxib], the “number of lesions after COX inhibitor pretreatment in the absence of 1-MNA” value in data set [3] (indomethacin 5 mg/kg i.p., SC-560 5 mg/kg i.g. or rofecoxib 10 mg/kg i.g., versus no inhibitor) is given as “increased the number of lesions”. Besides, in data set [1] (WRS), the “effect on the protection by 1-MNA” value is “significantly inhibited the protection by 1-MNA”; the “effect … of IL-1β and TNFα” value was “significantly inhibited the protective property of 1-MNA”. In data set [1], the “lesion numbers after COX inhibitor pretreatment before 1-MNA and WRS” value is “increase of lesion numbers”; the “effect … in the GBF induced by 1-MNA” value was “significantly attenuated”.
Take `CCCCC(C)(C)[C@H](O)/C=C/[C@H]1[C@H](O)CC(=O)[C@@H]1C/C=C\CCCC(=O)O` [16,16-dimethyl PGE2]: in data set [1] (setting [6]), the “gastric damage induced by either indomethacin, SC-560, or rofecoxib” value was “successful in preventing the gastric damage” and the mean lesion number result was “sufficient to decrease the mean lesion number”.
For the compound `C[n+]1cccc(C(N)=O)c1` [1-MNA, 1-methyl nicotinamide], in data set [4], the mean lesion number entry is “reduce mean lesion number”, the “plasma level of IL-1β” value is “decrease” and the “plasma level of TNFα” value is recorded as “decrease”. Also, the “dose dependence of the ability to inhibit gastric output” value in the data set with gastric acid output was “increased with increasing dosage”. In the data set with gastric acid output (1-MNA versus NA), the “suppression of gastric acid output compared with NA” value is on record as “more effectively than NA”. Besides, the gastric acid output entry in the data set with gastric acid output (1-MNA, NA or vehicle control) was “decrease the gastric acid output”. Besides, in data set [3] (setting [7]), the gastric blood flow entry is on record as “increased gastric blood flow” and the lesion number entry is “decreased lesion number”. In data set [3] (ethanol model, 1-MNA versus NA), the “increase of gastric blood flow compared with NA” value is recorded as “more effectively than NA” and the “reduction of lesion number compared with NA” value (“reduction of lesion number” below) is given as “more effectively than NA”. Also, in data set [3] (ethanol model, presence of 1-MNA), the “mean lesion number in animals pretreated with either indomethacin, SC-560, or rofecoxib” value is recorded as “significantly reduced”. For the same compound, in data set [5] (1-MNA versus NA), the “increase of gastric blood flow compared with NA” value is recorded as “more effectively than NA” and the “reduction of lesion number” value was “more effectively than NA”. For the same compound, in data set [5] (ASA-induced lesions), the “levels of 4-HNE in gastric mucosa” value was “decreasing”, the “levels of MDA in gastric mucosa” value is “decreasing”, the “levels of MPO in gastric mucosa” value is given as “lowering the levels of MPO” and the “levels of SOD in gastric mucosa” value is listed as “increasing the levels of SOD”. Moreover, in data set [5] (setting [8]), the gastric blood flow entry was “increased gastric blood flow” and the lesion number entry was “decreased lesion number”. Besides, in data set [5] (setting [9]), the “increasing GBF, compared with ranitidine, NO-ASA and SIN-1” value is “equally effective”; the “increasing luminal NO, compared with ranitidine, NO-ASA and SIN-1” value is recorded as “equally effective”; the “reducing mean lesion number, compared with ranitidine, NO-ASA and SIN-1” value is listed as “equally effective”. In addition, in data set [1] (setting [10]), the gastric blood flow result was “increased gastric blood flow” and the lesion number result was “decreased lesion number”. For the same compound, in data set [1] (WRS model), the “plasma level of IL-1β” value is listed as “decrease the plasma levels” and the “plasma level of TNFα” value is “decrease the plasma levels”. Also, the “reduction of lesion number” value in data set [1] (WRS, 1-MNA versus NA) is reported as “more effectively than NA”. Besides, in the data set on acetic acid ulcer (rats given rofecoxib), the “GBF in the ulcer area” value is listed as “increase the GBF in the ulcer area” and the ulcer area entry is given as “reduce the ulcer area in rats given rofecoxib”. Moreover, in the data set on acetic acid ulcer (without rofecoxib), the “GBF in the ulcer area” value is “increase the GBF in the ulcer area” and the ulcer area result is on record as “reduce the ulcer area”. For the same compound, in data set [2] (setting [11]), the gastric blood flow result is recorded as “increased gastric blood flow” and the lesion number entry is listed as “decreased lesion number”.
Take calcitonin gene related peptide [CGRP]: the “effect on the deleterious effects of capsazepine” value in data set [1] (WRS, addition of CGRP) is “counter the deleterious effects of casazepine”. In addition, in data set [1] (WRS, addition of CGRP to 1-MNA in denervated rats), the “effect on the deleterious effects of capsaicin-induced denervation” value is given as “counteracted the deleterious effects of capsaicin-induced denervation”.
For the compound `COc1cc(CNC(=O)CCCC/C=C/C(C)C)ccc1O` [capsaicin], the “effect of capsaicin denervation on the protection induced by 1-MNA with respect to gastric lesions” value in data set [1] (WRS, capsaicin 125 mg/kg s.c.) is “significantly inhibit the protection induced by 1-MNA”. The “effect … in the GBF induced by 1-MNA” value in data set [1] is reported as “significantly attenuated”.
As for `Oc1cc2c(cc1O)CN(C(=S)NCCc1ccc(Cl)cc1)CCC2` [capsazepine], the “effect on the protective property of 1-MNA as measured by mean lesion number and gastric blood flow” value in data set [1] (WRS, capsazepine 5 mg/kg s.c.) is “reduced the protective property of 1-MNA”. The “effect … in the GBF induced by 1-MNA” value in data set [1] is on record as “significantly attenuated”.
